Literature values as cited in publication PMC12503259, “Establishment of an in vivo analytical method for detecting total anti-UFH activity and pharmacokinetic study in PS and R15 in rats” (PLOS One, 2025).

Key:
[1] = UFH 300 U·kg^-1 in rats, preliminary experimental data; cited from earlier work
From the text: A dose of 300 U· kg^-1 dose of UFH is considered clinically effective. […] Accordingly, we performed pharmacokinetic studies of PS at 300 U kg^-1, and of R15 at 300, 900, and 2700 U· kg^-1 to determine whether R15 follows linear or nonlinear pharmacokinetics.

[2] = clinical practice; cited from earlier work
From the text: In clinical practice, PS is typically administered at 1.2 times the anti-heparin activity of circulating UFH to achieve complete neutralization [40, 41].

Unfractionated heparin [UFH]
duration of heparinization [1]: at least 4 hours | T1/2 [2]: 1 to 2 h
